Here are results for five compounds from patent publication US8602215B2, “Methods for reducing the risk of an adverse dronedarone/beta-blockers interaction in a patient suffering from atrial fibrillation” (Sanofi, priority 2010, dated 2013).

Molecules are shown by their SMILES. Counter-ions that a name gives are not always drawn. Like-named read-outs stand apart in the source and are kept apart here.

The conditions of data set [1]: human, in vivo.
For data set [2], the system named is patients with atrial fibrillation or atrial flutter. Kind of data set: ATHENA clinical study, patients with beta-blockers baseline medication. It counts as in vivo. The protocol:
The relative risk (RR) was estimated using Cox's […] regression model.
The relative risk (RR) is the ratio of the rates of occurrence of a hospitalization or of a death among the patients on dronedarone, relative to the patients on placebo.
The percentage reduction x of a given event (hospitalization, death, cardiovascular death, etc.) is calculated in the following way: x=1−relative risk. Results Relating to the Prevention of Cardiovascular Hospitalization or Death

Data set [3] deals with healthy male caucasian subjects. Briefly: Metoprolol/dronedarone interaction study: pharmacodynamics, myocardial contractility (Example 1). The conditions noted are these: dronedarone 800 mg BID added on top of metoprolol 200 mg OD; p=0.0002. It counts as in vivo, human (healthy male caucasian subjects). How it is done:
(§1) All treatments were administered in fed conditions.
The pharmacodynamic analyses were based on the change in Day 5 and Day 13 measurements, using a one-way analysis of variance (ANOVA) model with term for dose, for both primary and secondary endpoints; estimates and 95% confidence intervals (CI) of the difference in mean CHGDay13-5 between dronedarone dose groups and the placebo group were derived within the ANOVA framework. As the sample size calculation was based on the comparison of the highest dronedarone dose versus placebo, pairwise comparison were performed without adjustment of the overall treatment first type error rate. Safety evaluation was based upon a review of individual values and descriptive statistics (listings, summary tables, graphics).

The subject of another data set is healthy male subjects. Kind of data set: Propranolol/dronedarone interaction study: pharmacodynamics, electrocardiogram and vital signs at rest and during sub-maximal exercise (Example 2). It is filed as in vivo, human (healthy male subjects). How it is done: as §1
Pharmacodynamics: Resting vital signs were summarized by the synthetic parameter AUC0-8 and analyzed for “treatment effects and chronological (“time”) effects using repeated measures analysis of variance. Exercise vital signs were analyzed in a similar manner; the electrocardiogram exercise data were not formally analyzed and presented using descriptive statistics.

A short description of another data set: clinical. Conditions: male, human, in vivo.
The nature of data set [4]: Metoprolol/dronedarone interaction study: plasma pharmacokinetics of metoprolol (Example 1). The conditions noted are these: dronedarone 400 mg BID + metoprolol 200 mg OD; CYP2D6 extensive metabolizer subjects.
The next data set deals with T1, CYP2D6 (Homo sapiens, UniProt P10635).
T1 construct: endogenous in cells; host or cells: healthy human volunteers in vivo (endogenous enzyme, CYP2D6 extensive metabolizers)
T1 sequence (P10635 whole entry): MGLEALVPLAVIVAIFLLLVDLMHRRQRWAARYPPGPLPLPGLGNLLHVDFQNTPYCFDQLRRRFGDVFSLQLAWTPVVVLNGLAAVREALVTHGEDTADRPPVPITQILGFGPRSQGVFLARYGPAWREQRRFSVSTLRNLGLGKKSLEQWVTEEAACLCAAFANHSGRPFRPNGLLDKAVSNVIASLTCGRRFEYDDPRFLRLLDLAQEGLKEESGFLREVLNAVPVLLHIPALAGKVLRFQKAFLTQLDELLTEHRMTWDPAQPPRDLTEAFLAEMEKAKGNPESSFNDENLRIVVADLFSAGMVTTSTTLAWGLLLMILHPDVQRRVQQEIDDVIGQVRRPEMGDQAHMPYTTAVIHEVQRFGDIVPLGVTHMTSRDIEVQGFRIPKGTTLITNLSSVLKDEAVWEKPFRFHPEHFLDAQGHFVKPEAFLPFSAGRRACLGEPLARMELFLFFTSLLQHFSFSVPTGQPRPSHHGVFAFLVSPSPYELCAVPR
Kind of data set: CYP2D6 inhibition in vivo, from metoprolol interaction (Example 1). Also on record: species or system human (CYP2D6 extensive metabolizer subjects). Conditions: dronedarone 400 mg BID, metoprolol 200 mg OD as substrate. The protocol:
as §1
The interaction ratio is lower than the existing 3-(Cmax) to 6-fold (AUC) difference in metoprolol exposure between poor and extensive CYP2D6 metabolizers.

For data set [5] the following is noted: human, in vivo. The source holds these as a separate data set.
The conditions of data set [6]: existing difference, quoted for comparison; cited from earlier work.
Setting [7] is: 1628 patients with beta-blockers baseline medication, placebo 673 of 1641.
The mark [8] stands for this setting: versus placebo, Cox model, beta-blockers baseline medication.
The mark [9] stands for this setting: versus placebo, beta-blockers baseline medication.

Take `CCCCNCCCOc1ccc(C(=O)c2c(CCCC)oc3ccc(NS(C)(=O)=O)cc23)cc1` [SR35021]: in data set [1], the AUC0-24 is on record as 768.6 (278.4) ng · h/ml, the Cmax is on record as 85.9 (28.8) ng/ml and the tmax is reported as 5.13 (0.72) h.

Turning to `CCCCc1oc2ccc(NS(C)(=O)=O)cc2c1C(=O)c1ccc(OCCCN(CCCC)CCCC)cc1` [dronedarone hydrochloride], the “death due to stroke, events reported” value in [2] (1628 patients with beta-blockers baseline medication, placebo 11 of 1641) is listed as 10 events. For the same compound, in data set [2] (1628 patients with beta-blockers baseline medication, placebo 25 of 1641), the “sudden cardiac death, events reported” value was 9 events. Further, the “hospitalization for congestive heart failure (CHF), events reported” value in [2] (1628 patients with beta-blockers baseline medication, placebo 96 of 1641) was determined as 85 events. In [2] (setting [7]), the “cardiovascular hospitalization or death, events reported” value is recorded as 553 events and the “death, events reported” value stood at 553 events. In addition, in [2] (setting [8]), the “relative risk of cardiovascular hospitalization or death” value is 0.777, the “relative risk of death” value came to 0.777, the “relative risk of death due to stroke” value is reported as 0.909 and the “relative risk of hospitalization for CHF” value was 0.888. In addition, the “relative risk of sudden cardiac death” value in data set [2] (setting [8]) is on record as 0.362. Moreover, in [2] (setting [9]), the “decrease of CHF” value came out at 12%, the “decrease of cardiovascular hospitalization or death” value is 23%, the decrease of death came out at 23% and the “decrease of death due to stroke” value is given as 10%. Besides, the “decrease of sudden cardiac death” value in data set [2] (setting [9]) is 64%.

By AUC(0-t) is commonly meant exposure summed from dosing to a finite time, without extrapolation to infinity. Low values mean less exposure, high ones more exposure. In the case of `CCCCc1oc2ccc(NS(C)(=O)=O)cc2c1C(=O)c1ccc(OCCCN(CCCC)CCCC)cc1` [dronedarone, 2-n-Butyl-3-[4-(3-di-n-butylaminopropoxy)benzoyl]-5-methylsulphonamidobenzofuran], in data set [3], the “reduction in Vcfmean (myocardial contractility)” value is -0.28 s⁻¹. In addition, in the data set on healthy male subjects (single dose), the “Resting diastolic blood pressure, change” value is listed as −3%; the “Resting heart rate, change” value is 2%; the “Resting systolic blood pressure, change” value is −5%; the “diastolic blood pressure during sub-maximal exercise, change from baseline” value is recorded as −2%. In addition, in the data set with healthy male subjects (single dose), the “heart rate during sub-maximal exercise, change from baseline” value is −3% and the “systolic blood pressure during sub-maximal exercise, change from baseline” value is recorded as −2%. Also, in the data set on healthy male subjects (single oral administration), the “PQ interval, change from baseline” value was “increase” and the “T-wave amplitude, change from baseline” value is reported as “increase”. Moreover, the “increase of steady-state propranolol (80 mg OD) exposure” value in data set [1] (male, 7 days) is 1.2-1.3 fold. This compound also came in with an AUC(0-t) in “clinical” (AUC0-24) of 983 ng·h/mL. In addition, in the data set “clinical” (Cmax), the Cmax came out at 140 ng/mL. Moreover, in the data set “clinical” (tmax), the tmax is 3.63 h. Moreover, the “effect on alpha hydroxymetoprolol exposures” value in [4] is recorded as “without significant effect”. For the same compound, the risk of bradycardia entry in [2] (patients using both dronedarone and beta-blockers except sotalol) is recorded as “no clinically significant increase”. The “inhibition of CYP2D6 in vivo” value at CYP2D6 is “weak inhibitor”.

In the case of `COCCc1ccc(OCC(O)CNC(C)C)cc1` (stereo not shown) [metoprolol], the “metoprolol Cmax and AUC0-24h after 8 days of treatment” value in data set [5] is on record as “significantly higher”. Further, in [5] (male), the AUC0-24 is reported as 1541 (1563) ng · h/mL; the “AUC0-24 ratio estimate (day 13/day 5) and 90% CI” value was 1.29 [1.08-1.55]; the Cmax is reported as 100.6 (86.4) ng/mL; the “Cmax ratio estimate (day 13/day 5) and 90% CI” value is 1.34 [1.08-1.66]. For the same compound, in data set [5] (male), the “increase in AUC0-24” value stood at 1.6 fold, the “increase in Cmax” value came out at 1.8 fold and the tmax turned out to be 4.0 h. In addition, in data set [6], the “difference in metoprolol exposure (AUC) between poor and extensive CYP2D6 metabolizers” value was 6 fold; the “difference in metoprolol exposure (Cmax) between poor and extensive CYP2D6 metabolizers” value is given as 3 fold.

Consider `CC(C)NCC(O)COc1cccc2ccccc12` (stereo not shown) [propranolol], for which the “magnitude of the PR prolongation” value with healthy male subjects (after repeated administration, p<0.001) worked out at 3.9%. In addition, the “magnitude of the T-wave increase” value with healthy male subjects (after repeated administration, p=0.001) worked out at 28.3%. Also, the “reduction of HR” value in the data set with healthy male subjects (at steady state) is given as −8.9%. Further, the “mean change from baseline in QT” value in the data set on healthy male subjects (based on AUC0-8 h, at steady state) worked out at 3.6%. Moreover, the “mean change from baseline in QTc” value with healthy male subjects (based on AUC0-8 h, at steady state, p<0.001) was −1.9%. Also, in the data set on healthy male subjects (repeated daily dosing), the “QT interval, change from baseline (resting electrocardiogram)” value was 4%; the “QTc interval, change from baseline (resting electrocardiogram)” value was −2%; the “T-wave amplitude, change from baseline (resting electrocardiogram)” value was determined as 28%. In addition, in the data set with healthy male subjects (repeated once daily dosing), the “PQ interval, change from baseline (resting electrocardiogram)” value was determined as 4% and the “Resting electrocardiogram heart rate, change compared to baseline” value is recorded as −9%. Besides, in the data set with healthy male subjects (repeated oral administration), the “Resting diastolic blood pressure, change” value was −10%; the “Resting heart rate, change” value is on record as −8%; the “Resting systolic blood pressure, change” value is listed as −5%; the “diastolic blood pressure during sub-maximal exercise, change from baseline” value was −2%. Also, in the data set on healthy male subjects (repeated oral administration), the “heart rate during sub-maximal exercise, change from baseline” value was −16% and the “systolic blood pressure during sub-maximal exercise, change from baseline” value is listed as −12%. In addition, in the data set with healthy male subjects (single dose), the “Resting diastolic blood pressure, change” value was −4%; the “Resting heart rate, change” value is reported as −10%; the “Resting systolic blood pressure, change” value was −3%; the “diastolic blood pressure during sub-maximal exercise, change from baseline” value is 2%. Also, in the data set on healthy male subjects (single dose), the “heart rate during sub-maximal exercise, change from baseline” value was −17% and the “systolic blood pressure during sub-maximal exercise, change from baseline” value was −13%. Also, in data set [1], the AUC0-12 is on record as 318.75 (178.62) ng · h/ml, the AUClast is 360.85 (210.30) ng · h/ml, the Cmax is recorded as 59.79 (33.77) ng/ml and the tmax is on record as 2.19 (0.66) h.
